Measurements published in patent publication US7396837B2, “Antitumoral analogs of lamellarins” (Pharma Mar, S.A.U., priority 2002, dated 2008).

Key:
K-562 = test: SRB colorimetric cell growth inhibition assay, K-562; type: cell-based; conditions: Homo sapiens, K562, K-562
Summary of the method: (§1)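 Read-out: sulforhodamine B colorimetry of surviving cell mass after continued exposure of human tumour lines to sample. Values are means ± SD of three wells, expressed as GI, TGI or LC.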

HT-29 = test: SRB colorimetric cell growth inhibition assay, HT-29; type: cell-based; conditions: Homo sapiens, HT-29, HT-29
Summary of the method: as §1

DU-145 = test: SRB colorimetric cell growth inhibition assay, DU-145; type: cell-based; conditions: Homo sapiens, DU-145, DU-145
Summary of the method: as §1

IGROV-ET = test: SRB colorimetric cell growth inhibition assay, IGROV-ET (ET-743 resistant); type: cell-based; conditions: Homo sapiens, IGROV-ET
Summary of the method: as §1

LoVo-Dox = test: SRB colorimetric cell growth inhibition assay, LoVo-Dox (MDR); type: cell-based; conditions: Homo sapiens, LOVO-DOX
Summary of the method: as §1

human topoisomerase I = target: T1, human topoisomerase I (Homo sapiens, UniProt P11387); test: Topoisomerase I DNA relaxation assay (supercoiled plasmid DNA); type: biochemical; conditions: supercoiled plasmid DNA, each compound tested at 1 μM, agarose gel with ethidium bromide
T1 sequence (P11387 1-765): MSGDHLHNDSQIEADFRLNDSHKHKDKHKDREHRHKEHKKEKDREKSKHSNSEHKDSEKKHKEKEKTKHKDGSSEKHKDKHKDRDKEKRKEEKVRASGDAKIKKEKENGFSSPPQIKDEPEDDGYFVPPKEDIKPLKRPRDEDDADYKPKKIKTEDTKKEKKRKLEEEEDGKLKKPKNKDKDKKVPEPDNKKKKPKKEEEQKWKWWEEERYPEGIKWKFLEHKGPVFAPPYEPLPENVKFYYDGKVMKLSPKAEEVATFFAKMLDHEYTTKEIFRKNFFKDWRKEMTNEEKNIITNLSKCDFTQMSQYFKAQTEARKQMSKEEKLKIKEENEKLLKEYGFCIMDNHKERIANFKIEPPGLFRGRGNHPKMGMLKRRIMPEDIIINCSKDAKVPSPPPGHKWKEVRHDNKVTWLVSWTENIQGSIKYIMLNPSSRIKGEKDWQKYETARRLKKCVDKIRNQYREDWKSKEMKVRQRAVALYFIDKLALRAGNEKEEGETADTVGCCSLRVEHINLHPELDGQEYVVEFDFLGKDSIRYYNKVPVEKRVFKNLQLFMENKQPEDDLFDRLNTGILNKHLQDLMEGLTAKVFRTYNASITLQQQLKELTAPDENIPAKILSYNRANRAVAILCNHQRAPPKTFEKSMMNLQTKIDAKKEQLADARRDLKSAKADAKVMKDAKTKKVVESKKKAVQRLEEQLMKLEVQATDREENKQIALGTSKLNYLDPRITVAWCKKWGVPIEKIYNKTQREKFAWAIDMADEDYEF
Summary of the method: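 Test compounds (1 μM each) were present during topoisomerase I relaxation of supercoiled plasmid DNA. Relaxation was assessed on ethidium bromide-stained agarose gels.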

SK-MEL-28 = test: SRB colorimetric cell growth inhibition assay, SK-MEL-28; type: cell-based; conditions: Homo sapiens, SK-MEL-28, MEL-28
Summary of the method: as §1

PANC-1 = test: SRB colorimetric cell growth inhibition assay, PANC-1; type: cell-based; conditions: Homo sapiens, PANC-1, PANC-1
Summary of the method: as §1

LNCaP = test: SRB colorimetric cell growth inhibition assay, LNCaP; type: cell-based; conditions: Homo sapiens, LNCaP, LN-caP
Summary of the method: as §1

IGROV = test: SRB colorimetric cell growth inhibition assay, IGROV; type: cell-based; conditions: Homo sapiens, IGROV
Summary of the method: as §1

A-549 = test: SRB colorimetric cell growth inhibition assay, A-549; type: cell-based; conditions: Homo sapiens, A549, A-549
Summary of the method: as §1

SK-BR-3 = test: SRB colorimetric cell growth inhibition assay, SK-BR-3; type: cell-based; conditions: Homo sapiens, SK-BR-3, SK-BR-3
Summary of the method: as §1

LoVo = test: SRB colorimetric cell growth inhibition assay, LoVo; type: cell-based; conditions: Homo sapiens, LoVo
Summary of the method: as §1

Q: How did the GI50 (K-562; GI=growth inhibition, read-out: GI50 K-562) turn out when `COc1cc(-c2c3c4cc(OC)c(OC(=O)[C@@H]5CCCN5)cc4oc(=O)c3n3ccc4cc(OC(=O)[C@@H]5CCCN5)c(OC)cc4c23)ccc1OC(=O)[C@@H]1CCCN1` [Compound 33] was run?
A: 5.96 nM

Q: And the CC50 (K-562; LC=cell killing (cytotoxic effect), read-out: LC50 K-562)?
A: 4030 nM

Q: What about the IC (TGI) (K-562; TGI=total growth inhibition (cytostatic effect), read-out: TGI K-562) of the same compound?
A: 918 nM

Q: And the GI50 (HT-29; GI=growth inhibition, read-out: GI50 HT-29)?
A: 1340 nM

Q: And the CC50 (HT-29; LC=cell killing (cytotoxic effect), read-out: LC50 HT-29)?
A: 8740 nM

Q: And the IC (TGI) (HT-29; TGI=total growth inhibition (cytostatic effect), read-out: TGI HT-29)?
A: 3420 nM

Q: And the GI50 (DU-145; GI=growth inhibition, read-out: GI50 DU-145)?
A: 18.6 nM

Q: What about the CC50 (DU-145; cell killing (cytotoxic effect), read-out: LC50 DU-145) of the same compound?
A: 367 nM

Q: And the IC (TGI) (DU-145; total growth inhibition (cytostatic effect), read-out: TGI DU-145)?
A: 46 nM

Q: And the GI50 (IGROV-ET; GI=growth inhibition, read-out: GI50 IGROV-ET)?
A: 78.1 nM

Q: And the CC50 (IGROV-ET; cell killing (cytotoxic effect), read-out: LC50 IGROV-ET)?
A: 8830 nM

Q: And the IC (TGI) (IGROV-ET; total growth inhibition (cytostatic effect), read-out: TGI IGROV-ET)?
A: 589 nM

Q: What about the GI50 (LoVo-Dox; GI=growth inhibition, read-out: GI50 LOVO-DOX) of the same compound?
A: 198 nM

Q: And the CC50 (LoVo-Dox; LC=cell killing (cytotoxic effect), read-out: LC50 LOVO-DOX)?
A: 4330 nM

Q: And the IC (TGI) (LoVo-Dox; TGI=total growth inhibition (cytostatic effect), read-out: TGI LOVO-DOX)?
A: 558 nM

Q: What about the “stimulation of DNA cleavage by topoisomerase I / inhibition of topoisomerase I (nicked DNA band) in DNA relaxation assay” value (human topoisomerase I) of the same compound?
A: marked inhibition of topoisomerase I

Q: What about the GI50 (SK-MEL-28; GI=growth inhibition, read-out: GI50 MEL-28) of the same compound?
A: 41.1 nM

Q: What about the CC50 (SK-MEL-28; cell killing (cytotoxic effect), read-out: LC50 MEL-28) of the same compound?
A: 2480 nM

Q: And the IC (TGI) (SK-MEL-28; total growth inhibition (cytostatic effect), read-out: TGI MEL-28)?
A: 198 nM

Q: And the GI50 (PANC-1; GI=growth inhibition, read-out: GI50 PANC-1)?
A: 89.2 nM

Q: What about the CC50 (PANC-1; LC=cell killing (cytotoxic effect), read-out: LC50 PANC-1) of the same compound?
A: 8440 nM

Q: And the IC (TGI) (PANC-1; TGI=total growth inhibition (cytostatic effect), read-out: TGI PANC-1)?
A: 1060 nM

Q: And the GI50 (LNCaP; GI=growth inhibition, read-out: GI50 LN-caP)?
A: 39.7 nM

Q: What about the CC50 (LNCaP; cell killing (cytotoxic effect), read-out: LC50 LN-caP) of the same compound?
A: 423 nM

Q: What about the IC (TGI) (LNCaP; total growth inhibition (cytostatic effect), read-out: TGI LN-caP) of the same compound?
A: 155 nM

Q: And the GI50 (IGROV; GI=growth inhibition, read-out: GI50 IGROV)?
A: 49.6 nM

Q: And the CC50 (IGROV; cell killing (cytotoxic effect), read-out: LC50 IGROV)?
A: 4760 nM

Q: And the IC (TGI) (IGROV; total growth inhibition (cytostatic effect), read-out: TGI IGROV)?
A: 500 nM

Q: And the GI50 (A-549; GI=growth inhibition, read-out: GI50 A-549)?
A: 37.9 nM

Q: And the CC50 (A-549; LC=cell killing (cytotoxic effect), read-out: LC50 A-549)?
A: 883 nM

Q: And the IC (TGI) (A-549; TGI=total growth inhibition (cytostatic effect), read-out: TGI A-549)?
A: 154 nM

Q: What about the GI50 (SK-BR-3; GI=growth inhibition, read-out: GI50 SK-BR-3) of the same compound?
A: 30.5 nM

Q: What about the CC50 (SK-BR-3; cell killing (cytotoxic effect), read-out: LC50 SK-BR-3) of the same compound?
A: 1440 nM

Q: What about the IC (TGI) (SK-BR-3; total growth inhibition (cytostatic effect), read-out: TGI SK-BR-3) of the same compound?
A: 168 nM

Q: What about the GI50 (LoVo; GI=growth inhibition, read-out: GI50 LOVO) of the same compound?
A: 153 nM

Q: What about the CC50 (LoVo; LC=cell killing (cytotoxic effect), read-out: LC50 LOVO) of the same compound?
A: 726 nM

Q: What about the IC (TGI) (LoVo; TGI=total growth inhibition (cytostatic effect), read-out: TGI LOVO) of the same compound?
A: 333 nM
